Experiments:
MDA-MB-231 = experiment: Growth inhibition of human MDA-MB-231 cells assessed as cell growth at 10^-7 M incubated for 48 hrs by sulforhodamine B assay relative to control; format: functional; conditions: MDA-MB-231, 48 h, read-out: Activity
COLO 205 = experiment: Growth inhibition of human COLO205 cells assessed as cell growth at 10^-8 M incubated for 48 hrs by sulforhodamine B assay relative to control; format: functional; conditions: COLO 205, 48 h, read-out: Activity
OVCAR-4 = experiment: Growth inhibition of human OVCAR4 cells assessed as cell growth at 10^-8 M incubated for 48 hrs by sulforhodamine B assay relative to control; format: functional; conditions: OVCAR-4, 48 h, read-out: Activity
EKVX = experiment: Growth inhibition of human EKVX cells assessed as cell growth at 10^-6 M incubated for 48 hrs by sulforhodamine B assay relative to control; format: functional; conditions: read-out: Activity
RPMI-8226 = experiment: Cytotoxicity against human RPMI8226 cells after 48 hrs by SRB assay; format: functional; conditions: RPMI-8226, 48 h; for GI50: read-out: GI50; for CC50: read-out: LC50 (the source's name); for TGI: read-out: TGI
BT-549 [1] = experiment: Cytotoxicity against human BT549 cells after 48 hrs by SRB assay; format: functional; conditions: BT-549, 48 h; for GI50: read-out: GI50; for TGI: read-out: TGI
HCT-116 = experiment: Cytotoxicity against human HCT116 cells after 48 hrs by SRB assay; format: functional; conditions: HCT-116, 48 h; for GI50: read-out: GI50; for CC50: read-out: pLC50 (the source's name) (converted)
SK-OV-3 = experiment: Growth inhibition of human SKOV3 cells assessed as cell growth at 10^-8 M incubated for 48 hrs by sulforhodamine B assay relative to control; format: functional; conditions: SK-OV-3, 48 h, read-out: Activity
SK-MEL-2 = experiment: Growth inhibition of human SK-MEL-2 cells assessed as cell growth at 10^-6 M incubated for 48 hrs by sulforhodamine B assay relative to control; format: functional; conditions: SK-MEL-2, 48 h, read-out: Activity
SW-620 = experiment: Growth inhibition of human SW620 cells assessed as cell growth at 10^-8 M incubated for 48 hrs by sulforhodamine B assay relative to control; format: functional; conditions: SW-620, 48 h, read-out: Activity
SF-268 [2] = experiment: Growth inhibition of human SF268 cells assessed as cell growth at 10^-7 M incubated for 48 hrs by sulforhodamine B assay relative to control; format: functional; conditions: SF-268, 48 h, read-out: Activity
SF-268 [3] = experiment: Cytotoxicity against human SF268 cells after 48 hrs by SRB assay; format: functional; conditions: SF-268, 48 h; for GI50: read-out: GI50; for TGI: read-out: TGI
PC-3 = experiment: Growth inhibition of human PC3 cells assessed as cell growth at 10^-7 M incubated for 48 hrs by sulforhodamine B assay relative to control; format: functional; conditions: PC-3, 48 h, read-out: Activity
UACC-257 = experiment: Growth inhibition of human UACC257 cells assessed as cell growth at 10^-7 M incubated for 48 hrs by sulforhodamine B assay relative to control; format: functional; conditions: UACC-257, 48 h, read-out: Activity
RXF 393 = experiment: Growth inhibition of human RXF393 cells assessed as cell growth at 10^-7 M incubated for 48 hrs by sulforhodamine B assay relative to control; format: functional; conditions: RXF 393, 48 h, read-out: Activity
HT-29 = experiment: Growth inhibition of human HT-29 cells assessed as cell growth at 10^-8 M incubated for 48 hrs by sulforhodamine B assay relative to control; format: functional; conditions: HT-29, 48 h, read-out: Activity
K562 = experiment: Cytotoxicity against human K562 cells after 48 hrs by SRB assay; format: functional; conditions: K562, 48 h; for GI50: read-out: GI50; for CC50: read-out: pLC50 (the source's name) (converted)
SN12C = experiment: Cytotoxicity against human SN12C cells after 48 hrs by SRB assay; format: functional; conditions: for GI50: read-out: GI50
[4] = Antiproliferative activity against HELF cells after 4 days by Coulter counter method; format: cell-based; conditions: Homo sapiens, 96 h
OVCAR-5 = experiment: Cytotoxicity against human OVCAR5 cells after 48 hrs by SRB assay; format: functional; conditions: OVCAR-5, 48 h; for GI50: read-out: GI50; for CC50: read-out: LC50 (the source's name)
U-251 = experiment: Growth inhibition of human U251 cells assessed as cell growth at 10^-5 M incubated for 48 hrs by sulforhodamine B assay relative to control; format: functional; conditions: U-251, 48 h, read-out: Activity
HOP-62 = experiment: Growth inhibition of human HOP62 cells assessed as cell growth at 10^-8 M incubated for 48 hrs by sulforhodamine B assay relative to control; format: functional; conditions: HOP-62, 48 h, read-out: Activity
Malme-3M = experiment: Growth inhibition of human MALME-3M cells assessed as cell growth at 10^-6 M incubated for 48 hrs by sulforhodamine B assay relative to control; format: functional; conditions: read-out: Activity
ACHN = experiment: Growth inhibition of human ACHN cells assessed as cell growth at 10^-6 M incubated for 48 hrs by sulforhodamine B assay relative to control; format: functional; conditions: read-out: Activity
BT-549 [5] = experiment: Growth inhibition of human BT549 cells assessed as cell growth at 10^-7 M incubated for 48 hrs by sulforhodamine B assay relative to control; format: functional; conditions: BT-549, 48 h, read-out: Activity
NCI-H460 = experiment: Growth inhibition of human NCI-H460 cells assessed as cell growth at 10^-8 M incubated for 48 hrs by sulforhodamine B assay relative to control; format: functional; conditions: NCI-H460, 48 h, read-out: Activity
NCI-H226 = experiment: Cytotoxicity against human NCI-H226 cells after 48 hrs by SRB assay; format: functional; conditions: NCI-H226, 48 h; for GI50: read-out: GI50; for CC50: read-out: LC50 (the source's name)
SNB-75 = experiment: Growth inhibition of human SNB75 cells assessed as cell growth at 10^-8 M incubated for 48 hrs by sulforhodamine B assay relative to control; format: functional; conditions: SNB-75, 48 h, read-out: Activity
OVCAR-8 = experiment: Growth inhibition of human OVCAR8 cells assessed as cell growth at 10^-8 M incubated for 48 hrs by sulforhodamine B assay relative to control; format: functional; conditions: OVCAR-8, 48 h, read-out: Activity
T47D = experiment: Growth inhibition of human T47D cells assessed as cell growth at 10^-7 M incubated for 48 hrs by sulforhodamine B assay relative to control; format: functional; conditions: read-out: Activity
[6] = read-out: pLC50 (the source's name) (converted)
[7] = read-out: LC50 (the source's name)

C#C[C@@]1(O)[C@@H](CO)O[C@@H](n2cc(I)c3c(N)ncnc32)[C@@H]1O
growth at 0.1 µM (MDA-MB-231): 60% | growth at 0.01 µM (COLO 205): 79 to 98% | growth at 0.01 µM (OVCAR-4): 90 to 104% | growth at 1 µM (EKVX): 33 to 38% | GI50 (RPMI-8226): 0.275 to 0.428 µM | CC50 (RPMI-8226): 91.5 to 100 µM | TGI (RPMI-8226): 4.57 to 6.65 µM | GI50 (BT-549 [1]): 0.175 to 0.384 µM | TGI (BT-549 [1]): 3.26 to 4.94 µM | CC50 (BT-549 [1]; [6]): > 100 µM | GI50 (HCT-116): 0.0344 to 0.0547 µM | TGI (HCT-116; read-out: TGI): > 100 µM | CC50 (HCT-116): > 100 µM | TGI (HCT-116; read-out: pTGI (converted)): > 100 µM | growth at 0.01 µM (SK-OV-3): 60 to 85% | growth at 1 µM (SK-MEL-2): 11 to 24% | growth at 0.01 µM (SW-620): 85 to 86% | growth at 0.1 µM (SF-268 [2]): 70 to 73% | GI50 (SF-268 [3]): 0.941 to 1.28 µM | CC50 (SF-268 [3]; [7]): > 100 µM | TGI (SF-268 [3]): 32.2 to 77.3 µM | growth at 0.1 µM (PC-3): 43 to 48% | growth at 0.1 µM (UACC-257): 81 to 88% | growth at 0.1 µM (RXF 393): 82 to 90% | growth at 0.01 µM (HT-29): 56 to 73% | GI50 (K562): 0.0595 to 0.069 µM | TGI (K562; read-out: TGI): > 100 µM | CC50 (K562): > 100 µM | TGI (K562; read-out: pTGI): > 100 µM | GI50 (SN12C): 0.069 to 0.138 µM | TGI (SN12C; read-out: TGI): > 100 µM | CC50 (SN12C; [6]): > 100 µM | TGI (SN12C; read-out: pTGI (converted)): > 100 µM | IC50 [4]: 0.032 µM | GI50 (OVCAR-5): 0.515 to 1.69 µM | CC50 (OVCAR-5): > 100 µM | TGI (OVCAR-5; read-out: TGI): > 100 µM | TGI (OVCAR-5; read-out: pTGI (converted)): > 100 µM | growth at 10 µM (U-251): 4% | growth at 0.01 µM (HOP-62): 83 to 89% | growth at 1 µM (Malme-3M): 39 to 61% | growth at 1 µM (ACHN): 28% | growth at 0.1 µM (BT-549 [5]): 61 to 76% | growth at 0.01 µM (NCI-H460): 91 to 92% | GI50 (NCI-H226): 1.35 to 2.18 µM | CC50 (NCI-H226): > 100 µM | TGI (NCI-H226; read-out: TGI): > 100 µM | TGI (NCI-H226; read-out: pTGI (converted)): > 100 µM | growth at 0.01 µM (SNB-75): 74 to 83% | growth at 0.01 µM (OVCAR-8): 75 to 89%

C#C[C@@]1(O)[C@@H](CO)O[C@@H](n2cc(Cl)c3c(N)ncnc32)[C@@H]1O
growth at 0.1 µM (MDA-MB-231): 60 to 71% | growth at 0.01 µM (COLO 205): 93 to 96% | growth at 0.01 µM (OVCAR-4): 89 to 90% | growth at 1 µM (EKVX): 10% | GI50 (RPMI-8226): 0.144 to 0.159 µM | CC50 (RPMI-8226): > 100 µM | TGI (RPMI-8226): 0.521 to 0.708 µM | GI50 (BT-549 [1]): 0.223 to 0.228 µM | TGI (BT-549 [1]): 0.64 to 0.685 µM | GI50 (HCT-116): 0.0185 to 0.0221 µM | TGI (HCT-116; read-out: TGI): > 100 µM | CC50 (HCT-116): > 100 µM | TGI (HCT-116; read-out: pTGI (converted)): > 100 µM | growth at 0.01 µM (SK-OV-3): 84 to 94% | growth at 0.1 µM (T47D): 31 to 50% | growth at 0.01 µM (SW-620): 88 to 91% | growth at 0.1 µM (SF-268 [2]): 77 to 80% | GI50 (SF-268 [3]): 0.328 to 0.338 µM | TGI (SF-268 [3]): 14.4 to 31.1 µM | CC50 (SF-268 [3]; [6]): > 100 µM | growth at 0.1 µM (PC-3): 62 to 70% | growth at 0.1 µM (UACC-257): 79 to 90% | growth at 0.1 µM (RXF 393): 105 to 110% | growth at 0.01 µM (HT-29): 83 to 92% | GI50 (K562): 0.0781 to 0.126 µM | TGI (K562; read-out: TGI): > 100 µM | CC50 (K562): > 100 µM | TGI (K562; read-out: pTGI): > 100 µM | GI50 (SN12C): 0.113 to 0.23 µM | CC50 (SN12C; [7]): > 100 µM | IC50 [4]: 0.0092 µM | GI50 (OVCAR-5): 0.28 to 0.644 µM | CC50 (OVCAR-5): > 100 µM | TGI (OVCAR-5; read-out: TGI): 70.8 to 100 µM | growth at 0.01 µM (HOP-62): 88 to 90% | growth at 1 µM (ACHN): 7% | growth at 0.1 µM (BT-549 [5]): 86 to 90% | growth at 0.01 µM (NCI-H460): 45 to 96% | GI50 (NCI-H226): 0.308 to 0.837 µM | CC50 (NCI-H226): > 100 µM | TGI (NCI-H226; read-out: TGI): 0.901 to 100 µM | growth at 0.01 µM (SNB-75): 84% | growth at 0.01 µM (OVCAR-8): 50 to 62%
